This note sets out measurements from US8551978B2 (Theravance, Inc., priority 2009, dated 2013).

The test system of assay [1] is MCh-induced bronchoconstriction. The assay can be described thus: Einthoven assay: bronchoprotection against methacholine (MCh)-induced bronchoconstriction. Format: in vivo, rat. The following applies: for inhibition in vivo at 0.1 mg: inhaled or nasal, read-out: Broncho. at 24 h. An outline of the steps:
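Male Sprague-Dawley rats received 100 μg compound (unless stated) or water vehicle by 10-min inhalation. At set times, anesthetized, ventilated rats were challenged with IV MCh at 40 and 80 μg/kg (2.5-min infusions). Ventilation-pressure rise is expressed as % inhibition versus vehicle controls.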

Assay [2] addresses hβ2 adrenergic receptor (Homo sapiens (Human), UniProt P07550). The assay can be described thus: Assay for determining adrenergic receptor agonist potency (cAMP Flashplate, HEK-293 cells). The following applies: data rounded to nearest 1 nM. Format: cell-based.
Assay [3] has as its target hM3 muscarinic receptor (Homo sapiens (Human), UniProt P20309). Kind of assay: Radioligand binding assay for muscarinic receptors ([3H]-NMS displacement, CHO cell membranes). An outline of the steps:
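[3H]-NMS displacement used homogenized CHO membranes, with test compounds at final concentrations of […]. Plates were incubated 6 hours at 37 °C, then filtered and read by liquid scintillation counting. A one-site competition fit gave values that were converted to Ki.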

Where [4] appears, read: rat, 100 μg by inhalation, 24 h after administration.
[5] abbreviates: hM3 Muscarinic Receptor Binding, data rounded to nearest 0.1 nM.

SMILES strings stand for the structures. pEC50, pKi: −log10 of the molar value. Structures can show the parent of a compound that is named as a salt. Where two headings read alike, the source gives them in different places.

Chain of hβ2 adrenergic receptor (P07550 whole entry): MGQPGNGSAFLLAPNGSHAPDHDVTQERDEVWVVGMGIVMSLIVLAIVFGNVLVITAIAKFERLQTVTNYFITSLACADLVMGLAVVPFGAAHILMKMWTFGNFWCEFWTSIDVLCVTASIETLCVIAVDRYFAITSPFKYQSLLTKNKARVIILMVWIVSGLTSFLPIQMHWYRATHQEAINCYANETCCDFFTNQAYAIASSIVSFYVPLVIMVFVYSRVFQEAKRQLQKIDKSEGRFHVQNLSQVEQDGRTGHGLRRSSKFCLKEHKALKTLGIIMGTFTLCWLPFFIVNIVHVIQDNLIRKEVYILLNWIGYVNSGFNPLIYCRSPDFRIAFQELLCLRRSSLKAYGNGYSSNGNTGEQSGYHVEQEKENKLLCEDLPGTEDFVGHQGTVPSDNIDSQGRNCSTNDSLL
Chain of hM3 muscarinic receptor (P20309 whole entry): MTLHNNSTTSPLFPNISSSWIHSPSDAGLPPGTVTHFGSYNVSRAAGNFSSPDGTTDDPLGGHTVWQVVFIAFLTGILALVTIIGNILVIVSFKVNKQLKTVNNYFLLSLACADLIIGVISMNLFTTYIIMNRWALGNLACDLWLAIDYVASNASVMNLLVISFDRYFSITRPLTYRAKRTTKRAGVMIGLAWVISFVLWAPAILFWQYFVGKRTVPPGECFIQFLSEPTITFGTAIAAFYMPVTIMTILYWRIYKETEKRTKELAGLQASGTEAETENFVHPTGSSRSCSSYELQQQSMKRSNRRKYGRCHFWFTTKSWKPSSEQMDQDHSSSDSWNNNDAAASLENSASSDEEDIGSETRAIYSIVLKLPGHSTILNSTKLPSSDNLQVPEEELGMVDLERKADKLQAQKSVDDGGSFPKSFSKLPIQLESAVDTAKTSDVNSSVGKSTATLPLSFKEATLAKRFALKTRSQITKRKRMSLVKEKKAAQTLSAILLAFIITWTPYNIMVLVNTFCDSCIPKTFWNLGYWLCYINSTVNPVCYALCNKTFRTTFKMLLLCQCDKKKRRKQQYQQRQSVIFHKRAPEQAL

For `COc1cc(NC(=O)c2cccc(N(C)C(=O)CCN3CCC(OC(=O)Nc4ccccc4-c4ccccc4)CC3)c2)c(Cl)cc1CNC[C@H](O)c1ccc(O)c2[nH]c(=O)ccc12` [Compound I-31], the inhibition in vivo at 0.1 mg in assay [1] (setting [4]) was more than 30%. In assay [2], this molecule gave a pEC50 of 9.00. In assay [3] (setting [5]), this molecule showed a pKi of 9.70.

On to `CC(Cc1cccc(CNC(=O)c2cccc(N(C)C(=O)CCN3CCC(OC(=O)Nc4ccccc4-c4ccccc4)CC3)c2)c1)NC[C@H](O)c1ccc(O)c2[nH]c(=O)ccc12` (stereo partly drawn) [Compound I-44], for which, in assay [1] (setting [4]), the “Broncho. at 24 h” value was “No”. In addition, the pEC50 in assay [2] is 9.00. The molecule also had a pKi in assay [3] of 10.00.

Regarding `Cc1cc(NC(=O)c2cccc(N(C)C(=O)CCN3CCC(OC(=O)Nc4ccccc4-c4ccccc4)CC3)c2)c(C)cc1CNC[C@H](O)c1ccc(O)c2[nH]c(=O)ccc12` [Compound I-30], in assay [1] (setting [4]), the “Broncho. at 24 h” value is given as “No”. Besides, the negative-log EC50 (pEC50) in assay [2] is 9.00. Moreover, the pKi in assay [3] was 9.70.

In the case of `CC(Cc1ccc(CC(=O)Nc2cccc(N(C)C(=O)CCN3CCC(OC(=O)Nc4ccccc4-c4ccccc4)CC3)c2)cc1)NC[C@H](O)c1ccc(O)c2[nH]c(=O)ccc12` (stereo partly drawn) [Compound I-53], the “Broncho. at 24 h” value in assay [1] (setting [4]) was “No”. In assay [2], this molecule showed a pEC50 of 9.00. Besides, the negative-log Ki (pKi) in assay [3] was 10.00.

For the molecule `C[C@@H](Cc1cccc(CCNC(=O)c2ccc(N(C)C(=O)CCN3CCC(OC(=O)Nc4ccccc4-c4ccccc4)CC3)cc2)c1)NC[C@H](O)c1ccc(O)c2[nH]c(=O)ccc12` [Compound I-56], the “Broncho. at 24 h” value in assay [1] (setting [4]) is “No”. In assay [2], this molecule gave a negative-log EC50 (pEC50) of 9.00. Further, the negative logarithm of the Ki (pKi) in assay [3] (setting [5]) was 9.70.

`Cc1cc(NC(=O)CCCCN(C)C(=O)CCN2CCC(OC(=O)Nc3ccccc3-c3ccccc3)CC2)c(C)cc1CNC[C@H](O)c1ccc(O)c2[nH]c(=O)ccc12` [Compound I-18, Biphenyl-2-ylcarbamic Acid 1-(2-{[4-(4-{[(R)-2-Hydroxy-2-(8-hydroxy-2-oxo-1,2-dihydroquinolin-5-yl)ethylamino]methyl}-2,5-dimethylphenylcarbamoyl)butyl]methylcarbamoyl}ethyl)piperidin-4-yl Ester Ditrifluoroacetic Acid Salt]: the inhibition in vivo at 0.1 mg in assay [1] (Rattus norvegicus, 24 h) is more than 30%. In assay [2], this molecule showed a pEC50 of 9.00. The same molecule showed a pKi in assay [3] of 10.00.

As for `C[C@@H](Cc1cccc(CC(=O)NCc2ccc(N(C)C(=O)CCN3CCC(OC(=O)Nc4ccccc4-c4ccccc4)CC3)cc2)c1)NC[C@H](O)c1ccc(O)c2[nH]c(=O)ccc12` [Compound I-79], the “Broncho. at 24 h” value in assay [1] (setting [4]) is on record as “No”. Moreover, the negative-log EC50 (pEC50) in assay [2] was 9.00. Also, in assay [3], the negative logarithm of the Ki (pKi) is 10.00.

As for `CC(Cc1ccc(CCNC(=O)Cc2ccc(N(C)C(=O)CCN3CCC(OC(=O)Nc4ccccc4-c4ccccc4)CC3)cc2)cc1)NC[C@H](O)c1ccc(O)c2[nH]c(=O)ccc12` (stereo partly drawn) [Compound I-88], the inhibition in vivo at 0.1 mg in assay [1] (setting [4]) is more than 30%. Moreover, the negative logarithm of the EC50 (pEC50) in assay [2] was 9.00. The same molecule had a pKi in assay [3] of 10.00.

Take `COc1cc(CNC[C@H](O)c2ccc(O)c3[nH]c(=O)ccc23)ccc1NC(=O)CCCN(C)C(=O)CCN1CCC(OC(=O)Nc2ccccc2-c2ccccc2)CC1` [Compound I-3]: the inhibition in vivo at 0.1 mg in assay [1] (setting [4]) was more than 30%. This molecule also showed a pEC50 in assay [2] of 9.00. The pKi in assay [3] (setting [5]) is 10.00.

As to `Cc1ccc(C(=O)Nc2ccc(CNC[C@H](O)c3ccc(O)c4[nH]c(=O)ccc34)cc2)cc1N(C)C(=O)CCN1CCC(OC(=O)Nc2ccccc2-c2ccccc2)CC1` [Compound I-26], the inhibition in vivo at 0.1 mg in assay [1] (setting [4]) is more than 30%. The molecule also showed a pEC50 in assay [2] of 9.00. The pKi in assay [3] is 9.70.

`COc1ccc(CC(=O)NCc2ccc(N(C)C(=O)CCN3CCC(OC(=O)Nc4ccccc4-c4ccccc4)CC3)cc2)cc1C[C@@H](C)NC[C@H](O)c1ccc(O)c2[nH]c(=O)ccc12` [Compound I-82]: the inhibition in vivo at 0.1 mg in assay [1] (setting [4]) is more than 30%. In assay [2], the negative logarithm of the EC50 (pEC50) was 9.00. Besides, the negative-log Ki (pKi) in assay [3] (setting [5]) was 10.00.

With `Cc1cc(NC(=O)CCCN(C)C(=O)CCN2CCC(OC(=O)Nc3ccccc3-c3ccccc3)CC2)c(C)cc1CNC[C@H](O)c1ccc(O)c2[nH]c(=O)ccc12` [Compound I-5], the inhibition in vivo at 0.1 mg in assay [1] (setting [4]) was more than 30%. For the same molecule, the pEC50 in assay [2] was 9.00. Also, in assay [3], the pKi was 10.00.

What is called pEC50 is the EC50 on a negative log10 scale, so that one unit is a factor of ten. Read a high pEC50 as a small EC50. Usually pKi stands for −log10 of the Ki, conventionally taken in molar units. Higher therefore signals a low Ki.
